Read-outs that look alike come from different tables or passages of the source.
Assays:
[1] = test system: HCC cells (MHCC97 H and SMMC 7721); experiment: Colony formation assay; format: cell-based, human
Protocol: Using a colony formation assay, the effect of KA on the colony-forming ability of HCC cells was evaluated. A total of 1000–2000 cells, along with KA, were seeded into each well of a six-well plate. During this period, fresh culture media and KA were replaced multiple times. After 2 to 3 weeks of incubation, the colonies were stained with crystal violet (Beyotime, Shanghai, China) and subsequently quantified in each well using ImageJ 1.52a software.

[2] = test system: nuclear translocation of ERK; experiment: ERK nuclear translocation (nuclear/cytoplasmic extraction, immunofluorescence); format: cell-based, human; details: 10 μM, 48 h, confocal microscopy
Protocol: After treating HCC cells with KA or DMSO, the cells were collected by cell scraping. Adding an appropriate amount of PMSF and reagent A (Nuclear and Cytoplasmic Protein Extraction Kit, Beyotime, Shanghai, China). Vortexed and then ice bathed for 15 min. Adding the reagent B provided in the kit mentioned before. Then vortexed and ice bathed for 1 min. Vortexed again. Centrifuged at 14,000× g for 5 min. The supernatant was cytoplasmic protein. Adding a certain amount of nuclear protein extraction reagent to the precipitate. Multiple vortices within 30 min. Centrifuged at 14,000× g for 10 min. The obtained supernatant was the nuclear protein.

[3] = test system: MHCC97 H cells; experiment: MTT IC50 determination in MHCC97 H; format: cell-based, human; details: Homo sapiens, MHCC97H
Protocol: (§1) Cell viability was assessed using MTT experiments. Cells, together with KA, were seeded into 96-well plates at a density of 2000 cells per well with three replicates per condition. DMSO was used as a control. At designated time points, 20 μL of MTT (Sigma, St. Louis, MO, USA) solution was added to each well and incubated for 3 h. After removing the culture medium, 200 μL of DMSO was added to dissolve the formazan crystals. The absorbance was then measured using a microplate reader at a wavelength of 560 nm.

[4] = test system: HCC cells (MHCC97 H and SMMC 7721); experiment: Cell wound healing assay; format: cell-based, human; details: 48 h, vs DMSO
Protocol: We seeded the cells in 6-well plates and allowed them to adhere and grow to full confluence. Then, we gently scratched the cell monolayer in a straight line using a sterile pipette tip. We rinsed the wells with PBS to remove detached cells and debris. We captured bright-field images of the scratched area at baseline (0 h). We replaced the medium with DMEM containing KA or DMSO and continued incubation. We re-imaged the same wound areas at 24 h and 48 h post-scratch. We quantified cell migration by measuring wound closure (%) over time using image analysis software.

[5] = test system: HCC cells (MHCC97 H and SMMC 7721); experiment: EdU staining proliferation assay; format: cell-based, human
Protocol: EdU staining was employed to assess cell proliferation following the manufacturer’s guidelines (Beyotime, Shanghai, China). A total of 2 × 10^4 cells, together with KA or DMSO, were seeded into 24-well plates and cultured for 48 h. Subsequently, the cells were incubated with […] EDU for 2 h, followed by fixation with 4% PFA for 15 min, permeabilization with 0.3% Triton X-100 for 10 min, and reaction with Click reaction cocktails for 30 min. Finally, the nuclei were stained with DAPI for 30 min at room temperature before microscopic examination.

[6] = test system: MHCC97 H cells labeled with luciferase; experiment: In vivo imaging of pulmonary metastasis after tail vein injection; set-up: species or system BALB/c-nu mice; details: 30 mg/kg intraperitoneal, once every two days, 32 days
Source text: (§2) Thirty-six female BALB/c-nu mice, four weeks old (supplied by Slike Jingda Laboratory Animal Co., Ltd., Changsha, China; Animal qualification number: SCXK-2019-0004), were housed in an SPF room. […] Therefore, female mice were selected for this study; 12 mice were used to establish the hepatocellular carcinoma xenografts. MHCC97 H cells (1 × 10^5 cells) were slowly injected into the left lobe of the mouse liver after being anesthetized with isoflurane. Three days later, the mice received intraperitoneal injections of KA (30 mg/kg) every two days for 45 days. Control mice were administered DMSO injections. Recorded the survival status of the animals. Prior to liver collection, the mice were anesthetized with isoflurane to minimize pain and euthanized by cervical dislocation. Ethics approval serial number: IACUC-20240613-03. Animal experiments were conducted in accordance with the Guide for the Care and Use of Laboratory Animals (Ministry of Science and Technology of China, 2006).
MHCC97 H cells labeled with luciferase (1 × 10^5 cells) were injected into the 4- to 5-week-old female BALB/c-nu mice (SPF grade, average weight 16–18 g) through intravenous injection. Following the injection, luciferase substrate was delivered to the mice via intraperitoneal injection. After a 5-min period of anesthesia with isoflurane, the mice were imaged using an in vivo small animal imaging system. […]

[7] = test system: YWHAB knockdown HCC cells; experiment: MTT IC50 in YWHAB knockdown HCC cells; format: cell-based, human; details: 48 h, vs scramble
Protocol: as §1
Short hairpin (sh) RNA targeting YWHAB was cloned into the pLKO.1-puro plasmid, with the sequences listed in Supplementary Table S1. Flag-tagged YWHAB, MYC-tagged YWHAB, and Flag-tagged Raf1 plasmids were purchased from Miaoling (Wuhan, China). Transfection was performed by introducing the specified plasmids into HEK293FT cells using Lipofectamine 2000 (Thermo, New York, NY, USA), following the manufacturer’s instructions. Viral supernatant or cells were collected two days post-transfection. For infection, HCC cells were treated with viral supernatant and polybrene (Sigma, Virginia Beach, VA, USA). After two rounds of infection, the cells were stably selected by using puromycin (Sigma, Virginia Beach, VA, USA).

[8] = test system: MHCC97 H cells injected into the liver; experiment: Orthotopic hepatocellular carcinoma xenograft survival; format: in vivo, BALB/c-nu mice; details: 30 mg/kg intraperitoneal, every two days, 45 days
Source text: as §2

[9] = molecular target: T1, Raf1 and YWHAB interaction (Homo sapiens, UniProt P31946); experiment: Co-immunoprecipitation of MYC-YWHAB and FLAG-Raf 1 in HEK 293T; format: cell-based; details: 25 μM and 30 μM, HEK 293T overexpressing MYC-YWHAB and FLAG-Raf 1
T1 construct: host or cells: HEK 293T
T1 sequence (P31946 1-246): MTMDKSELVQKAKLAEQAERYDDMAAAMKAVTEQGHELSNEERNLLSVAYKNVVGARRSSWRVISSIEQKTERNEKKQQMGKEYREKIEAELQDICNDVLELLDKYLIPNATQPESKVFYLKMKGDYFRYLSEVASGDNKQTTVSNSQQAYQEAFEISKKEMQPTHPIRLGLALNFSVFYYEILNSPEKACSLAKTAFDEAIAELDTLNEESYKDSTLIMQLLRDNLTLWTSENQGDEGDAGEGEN

[10] = test system: HCC cells (MHCC97 H and SMMC 7721); experiment: Flow cytometry cell cycle analysis, result stated for HCC cells; format: cell-based, human; details: 48 h
Protocol: Cells were digested, centrifuged, and resuspended in PBS buffer following 48 h of treatment with either KA or DMSO. Prior to cell cycle analysis, the cells were fixed in 75% ethanol for a minimum of 24 h, followed by labeling with PI and RNase (Beyotime, Shanghai, China). Subsequently, the cells were analyzed using flow cytometry. Each group consisted of three replicates.

## CC(C)=CCc1c(-c2ccc(O)c3c2OC(C)(C)C=C3)oc2cc(O)cc(O)c2c1=O [KA, Kuwanon A]
[1]; YWHAB-overexpressing HCC cells, KA 15 μM
  in vitro colony formation ability under YWHAB overexpression: failed to inhibit the in vitro colony formation ability
[1]; indicated concentrations of KA, vs DMSO
  colony formation ability: significantly reduced colony formation ability
[2]
  nuclear translocation of ERK: inhibited the nuclear translocation of ERK
[3]; MTT method, read-out: IC50 in MHCC97 H (screen)
  IC50: < 20 µM
[3]; MTT, gradient concentrations, 48 h, read-out: IC50 in MHCC97 H
  IC50: 8.4 µM
[4]
  wound healing (cell scratch assay): significant reduction in wound healing
[5]; 48 h treatment
  proportion of proliferating HCC cells (EdU): significant decrease in the proportion of proliferating HCC cells
[5]; YWHAB-overexpressing HCC cells, KA 15 μM, 48 h
  proliferation inhibition by KA under YWHAB overexpression (EdU): partly reversed the proliferation inhibition
[6]
  pulmonary metastasis (in vivo imaging): significantly inhibited the pulmonary metastasis
[7]
  IC50 of KA after knockdown of YWHAB: significant increase in the IC50
[8]
  survival time: significantly extended
[9]
  amount of YWHAB interacting with Raf1 (co-immunoprecipitation): reduction in the amount of YWHAB interacting with Raf1
[10]; concentration-dependent
  cell cycle arrest (flow cytometry): significant G0/G1 phase arrest
[10]; YWHAB-overexpressing cells, KA 15 μM
  G0/G1 phase arrest under YWHAB overexpression: less KA-induced G0/G1 phase arrest

Source: paper PMC12523843, “Kuwanon A Targeted YWHAB in Hepatocellular Carcinoma Cells to Inhibit the Raf/MEK/ERK Signaling Pathway” (Cells, 2025)
